{"source": "patent US12558342B2", "about": "“2-[2-({12,12-dimethyl-4-oxo-6-phenyl-3,11-dioxatricyclo[8.4.0.0,2,7]tetradeca-1,5,7,9-tetraen-8-yl}oxy)acetamido]benzamide and derivatives as inhibitor of clock:bmal1 interaction for the treatment of circadian rhythm diseases and disorders” (KOC UNIVERSITESI, priority 2019, dated 2026)", "key": {"[1]": {"target": "T1, CLOCK-F80A-K220A (Homo sapiens, UniProt O15516, F80A/K220A)", "T1 construct": "expressed in transfected cells; host or cells: HEK 293T", "T1 sequence (O15516 1-846 F80A/K220A)": "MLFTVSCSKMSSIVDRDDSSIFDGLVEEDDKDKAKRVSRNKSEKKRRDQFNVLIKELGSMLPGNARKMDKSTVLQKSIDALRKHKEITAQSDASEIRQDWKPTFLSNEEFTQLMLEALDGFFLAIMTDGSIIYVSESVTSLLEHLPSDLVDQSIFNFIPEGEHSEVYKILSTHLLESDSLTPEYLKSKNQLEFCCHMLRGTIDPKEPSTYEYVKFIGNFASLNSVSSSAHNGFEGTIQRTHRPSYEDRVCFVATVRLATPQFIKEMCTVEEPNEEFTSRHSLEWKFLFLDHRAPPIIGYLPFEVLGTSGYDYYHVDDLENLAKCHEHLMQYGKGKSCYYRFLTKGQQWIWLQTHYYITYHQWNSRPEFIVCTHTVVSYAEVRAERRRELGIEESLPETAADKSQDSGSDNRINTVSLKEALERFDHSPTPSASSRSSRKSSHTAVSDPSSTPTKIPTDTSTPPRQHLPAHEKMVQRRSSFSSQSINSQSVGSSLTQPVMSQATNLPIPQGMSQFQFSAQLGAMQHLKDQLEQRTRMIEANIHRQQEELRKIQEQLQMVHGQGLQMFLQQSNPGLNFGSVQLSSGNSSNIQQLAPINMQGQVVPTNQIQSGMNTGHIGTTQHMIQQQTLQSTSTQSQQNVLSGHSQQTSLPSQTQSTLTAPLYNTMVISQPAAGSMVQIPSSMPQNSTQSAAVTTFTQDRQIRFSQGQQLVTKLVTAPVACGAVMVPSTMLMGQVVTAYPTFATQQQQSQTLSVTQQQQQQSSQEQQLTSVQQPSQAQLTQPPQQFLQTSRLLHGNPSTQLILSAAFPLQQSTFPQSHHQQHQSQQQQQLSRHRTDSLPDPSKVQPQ", "test": "Pull-down assay with biotinylated CLK8, HEK 293T cells overexpressing CLOCK-F80A-K220A and BMAL1", "type": "binding", "description": "HEK293T cells were transiently transfected with tag-free hsClock and mBmal1. After 48 hours of transfection, cells were harvested and whole cell lysate was prepared with ice-cold lysis buffer (50 mM Tris-HCl pH 7.4, 2 mM EDTA, 1 mM MgCl2, 0.2% NP-40, 1 mM sodium orthovanadate, 1 mM sodium fluoride and protease inhibitor cocktail) followed by centrifugation at 7000×g at 4° C. for 10 minutes. Lysate was diluted with ice-cold 2× binding buffer (100 mM Tris-HCl pH 7.4, 300 mM NaCl, 0.2% NP-40, 2 mM sodium orthovanadate, 2 mM sodium fluoride, and protease inhibitor cocktail) 27. The lysate was divided into three fractions to be treated with either DMSO, or 20 μM of bitoinylated-CLK8 (bait) with or without 200 μM CLK8 (competitor). The lysate-compound samples were incubated and mixed continuously at 4° C. for 1 hour. After equilibrating NeutroAvidin Agarose resin (Thermo Scientific) with lysis buffer, the lysate-compound mixture and NeutroAvidin Agarose resin were incubated and mixed continuously at 4° C. overnight. The beads were washed four times with 1× binding buffer. To elute the bound proteins Laemmli buffer was added and samples were heated at 95° C. for 7 minutes. The pull-down precipitates were subjected to SDS-PAGE and transferred to a PVDF membrane (Millipore). […]"}, "[2]": {"tested_on": "Bmal1::dluc U2OS cells", "test": "Real-time monitoring of circadian rhythm, Bmal1::dluc U2OS", "type": "cell-based, human", "description": "We used Bmal1::dluc U2-OS and Per1::dluc NIH 3T3, and continuously monitored the bioluminescence to record circadian rhythm. This experiment was performed in 96-well plates (triplicates) and 35-mm dishes (duplicates) in the secondary screen and detailed characterization steps respectively. Briefly, cells were seeded to reach confluency. A day after, the medium was replaced with DMEM containing 0.1 μM Dexamethasone to synchronize cells. Two hour later, 0.1 mM of Luciferin was freshly added to the recording medium (low glucose DMEM powder (with L-glutamine) supplemented with 10 mM HEPES, […] sodium bicarbonate, 3.5 mg/ml D-(+)-glucose powder, 5% FBS, 0.1 mM NEAA, 100 U/ml penicillin and […]). Then, the medium was replaced with recording medium containing appropriate amount of each compound. Control cells were treated with 0.5% vehicle (DMSO). For a detailed characterization of CLK8, whenever required, and without any further medium change, small molecule treatment was postponed to two days after bioluminescence recording started. The 96-well plates were covered and bioluminescence was monitored by Synergy H1 Hybrid Multi-Mode Reader every 32 minutes. Similarly, we sealed the 35-mm plates with vacuum grease prior to mounting them on a LumiCycle luminometer (Actimetrics). Bioluminescence was recorded every 10 minutes for 4-6 days. Raw data (counts/sec) were plotted against time. The period and amplitude parameters were obtained using LumiCycle Analysis software (Actimetrics). First, the raw data was baseline fitted (n=1), and then the baseline-subtracted data was fitted to a sine wave (damped). The first day's data was excluded from the analysis due to transient perturbations of luminescence after the medium change.\nWe used Bmal1::dluc U2-OS and Per1::dluc NIH 3T3, and continuously monitored the bioluminescence to record circadian rhythm. This experiment was performed in 96-well plates (triplicates) and 35-mm dishes (duplicates) in the secondary screen and detailed characterization steps respectively. Briefly, cells were seeded to reach confluency. A day after, the medium was replaced with DMEM containing 0.1 μM Dexamethasone to synchronize cells. Two hour later, 0.1 mM of Luciferin was freshly added to the recording medium (low glucose DMEM powder (with L-glutamine) supplemented with 10 mM HEPES, 0.35 mg/ml sodium bicarbonate, 3.5 mg/ml D-(+)-glucose powder, 5% FBS, 0.1 mM NEAA, 100 U/ml penicillin and […]). […] The 96-well plates were covered and bioluminescence was monitored by Synergy H1 Hybrid Multi-Mode Reader every 32 minutes. […] Bioluminescence was recorded every 10 minutes for 4-6 days. […] The first day's data was excluded from the analysis due to transient perturbations of luminescence after the medium change."}}, "data": [{"smiles": "CC1(C)CCc2c(cc(OCC(=O)Nc3ccccc3C(N)=O)c3c(-c4ccccc4)cc(=O)oc23)O1", "note": "[CLK8, 2-[2-({12,12-dimethyl-4-oxo-6-phenyl-3,11-dioxatricyclo [8.4.0.0,2,7]tetradeca-1,5,7,9-tetraen-8-yl}oxy)acetamido] benzamide]", "values": [{"measurement": "precipitated mutant CLOCK in the presence of the competitor", "setting": "[1]", "value": "did not disappear"}, {"measurement": "enhancement of amplitude", "setting": "[2]; 10 μM, treated two days after synchronization", "value": "more than 50%"}, {"measurement": "period of circadian rhythm", "setting": "[2]; U2OS-Bmal1::dLuc", "value": "no period changes"}, {"measurement": "amplitude of circadian rhythm", "setting": "[2]; U2OS-Bmal1::dLuc, dose dependent", "value": "enhances the amplitude"}, {"measurement": "phase of the first trough after treatment", "setting": "[2]; treated two days after synchronization, vs DMSO control", "value": "advanced the phase of the first trough"}]}]}
